Measurements reported in US20040204409A1, “Bicyclic compounds as NR2B receptor antagonists” (priority 2003, published 2004).

Target: T1, NR2B receptor (Rattus norvegicus, UniProt P35439+Q00960)
T1 construct: Membranes were prepared by homogenization of forebrain of male CD rats; from tissue; host or cells: rat forebrain P2 membrane
Assay: NR2B Binding Assay (competition with [3H]-1-[(1S*,2S*)-2-hydroxy-2-(4-hydroxyphenyl)-1-methylethyl]-4-phenylpiperidin-4-ol on P2 membrane)
Details: forebrain P2 membrane of male CD rats, 5 nM radioligand, 60 minutes at room temperature, pH7.4; read-out: Ki value with respect to binding affinity for the NR2B receptor
Method: The activity of the bicyclic amide compounds of the present invention, as NR2B antagonists, is determined by their ability to inhibit the binding of NR2B subunit at its receptor sites employing radioactive ligands.
The NR2B antagonist activity of the bicyclic amide compounds is evaluated by using the standard assay procedure described in, for example, J. Pharmacol., 331, pp117-126, 1997. This method essentially involves determining the concentration of the individual compound required to reduce the amount of radiolabelled NR2B ligands by 50% at their receptor sites, thereby affording characteristic IC50 values for each compound tested. More specifically, the assay is carried out as follows. […]
For the saturation assay, receptor saturation was determined by incubating [^3H]-1-[(1S*,2S*)-2-hydroxy-2-(4-hydroxyphenyl)-1-methylethyl]-4-phenylpiperidin-4-ol and 50 μg protein of P2 membrane for 60 minutes at room temperature in a final 100 μl of incubation buffer (50 mM Tris HCl, pH7.4). Total and non-specific bindings (in the presence of 10 μM of unlabeled 1-[(1S*,2S*)-2-hydroxy-2-(4-hydroxyphenyl)-1-methylethyl]-4-phenylpiperidin-4-ol) were determined in a range of [3H]-1-[(1S*,2S*)-2-hydroxy-2-(4-hydroxyphenyl)-1-methylethyl]-4-phenylpiperidin-4-ol concentrations (0.625 nM to 60 nM). […]

T1 sequence (Q00960 27-1482, other chains not shown): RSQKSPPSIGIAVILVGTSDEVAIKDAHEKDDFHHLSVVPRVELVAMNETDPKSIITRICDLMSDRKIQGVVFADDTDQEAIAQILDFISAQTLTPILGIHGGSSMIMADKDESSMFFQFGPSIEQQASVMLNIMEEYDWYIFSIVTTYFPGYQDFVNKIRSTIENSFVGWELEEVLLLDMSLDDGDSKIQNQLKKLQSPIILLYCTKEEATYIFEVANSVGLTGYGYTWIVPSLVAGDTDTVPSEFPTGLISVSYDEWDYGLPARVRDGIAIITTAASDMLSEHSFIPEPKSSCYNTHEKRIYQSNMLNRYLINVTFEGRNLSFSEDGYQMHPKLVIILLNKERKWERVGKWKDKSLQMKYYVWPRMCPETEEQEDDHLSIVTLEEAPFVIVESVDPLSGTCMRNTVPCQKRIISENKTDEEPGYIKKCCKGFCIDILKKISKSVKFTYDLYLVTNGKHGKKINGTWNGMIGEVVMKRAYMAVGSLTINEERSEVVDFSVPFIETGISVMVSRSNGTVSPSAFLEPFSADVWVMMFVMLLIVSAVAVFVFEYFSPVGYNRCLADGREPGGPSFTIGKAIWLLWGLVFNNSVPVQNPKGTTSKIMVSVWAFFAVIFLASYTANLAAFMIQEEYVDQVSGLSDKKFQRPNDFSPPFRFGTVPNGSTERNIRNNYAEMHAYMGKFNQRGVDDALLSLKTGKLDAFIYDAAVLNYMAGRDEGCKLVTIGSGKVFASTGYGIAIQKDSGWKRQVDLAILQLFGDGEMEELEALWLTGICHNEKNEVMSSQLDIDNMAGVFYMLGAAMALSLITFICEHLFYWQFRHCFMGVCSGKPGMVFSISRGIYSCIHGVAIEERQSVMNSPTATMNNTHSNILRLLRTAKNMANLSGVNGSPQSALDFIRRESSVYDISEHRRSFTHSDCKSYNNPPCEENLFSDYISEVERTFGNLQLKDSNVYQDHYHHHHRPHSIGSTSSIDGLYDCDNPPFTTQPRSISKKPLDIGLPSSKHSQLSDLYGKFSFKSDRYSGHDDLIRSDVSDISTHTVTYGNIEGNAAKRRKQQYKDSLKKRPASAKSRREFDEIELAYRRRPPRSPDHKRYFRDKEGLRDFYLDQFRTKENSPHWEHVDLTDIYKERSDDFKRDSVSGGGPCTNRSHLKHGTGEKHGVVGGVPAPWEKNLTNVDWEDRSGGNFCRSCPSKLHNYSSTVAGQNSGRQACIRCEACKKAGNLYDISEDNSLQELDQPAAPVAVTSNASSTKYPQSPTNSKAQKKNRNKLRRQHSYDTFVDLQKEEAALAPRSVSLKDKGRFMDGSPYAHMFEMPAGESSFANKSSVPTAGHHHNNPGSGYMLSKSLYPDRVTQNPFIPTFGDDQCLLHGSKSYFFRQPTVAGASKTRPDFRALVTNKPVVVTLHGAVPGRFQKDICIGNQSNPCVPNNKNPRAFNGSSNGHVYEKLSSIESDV

Ki: 2 nM
SMILES: O=C(NCc1ccc2[nH]c(Cc3ccccc3)cc2c1)c1ccc(O)cc1 [Example 8, N-[(2-benzyl-1H-indol-5-yl)methyl]-4-hydroxybenzamide]
